Here are results for 15 molecules from ChEMBL document CHEMBL4138241, “Synthesis and in vitro evaluation of novel substituted isatin-propylene-1H-1,2,3-triazole-4-methylene-moxifloxacin hybrids for their anti-mycobacterial activities” (Eur J Med Chem, 2018).

Converted amounts (≈) assume the structure as drawn.

The first test deals with Mycobacterium tuberculosis. The experiment in a line: Potency index, ratio of rifampicin MIC to compound MIC for antimycobacterial activity against isoniazid/rifampicin/ethambutol-resistant Mycobacterium tuberculosis. It counts as functional.
Settings: not given
Consider `CO/N=C1/C(=O)N(CCCn2cc(CN3CCC[C@@H]4CN(c5c(F)cc6c(=O)c(C(=O)O)cn(C7CC7)c6c5OC)C[C@@H]43)nn2)c2ccc(F)cc21`, for which the Ratio is recorded as 2 - 2048.

Another test concerns Mycobacterium tuberculosis. Put plainly: Potency index, ratio of moxifloxacin MIC to compound MIC for antimycobacterial activity against isoniazid/rifampicin/ethambutol-resistant Mycobacterium tuberculosis.
Settings: not given
It counts as functional.
For `CO/N=C1/C(=O)N(CCCn2cc(CN3CCC[C@@H]4CN(c5c(F)cc6c(=O)c(C(=O)O)cn(C7CC7)c6c5OC)C[C@@H]43)nn2)c2ccc(F)cc21`, the Ratio is listed as 2 - 2048.

The test system of the next test is Mycobacterium tuberculosis. Put plainly: Potency index, ratio of isoniazid MIC to compound MIC for antimycobacterial activity against isoniazid/rifampicin/ethambutol-resistant Mycobacterium tuberculosis. The class given is functional.
Settings: not given
`CO/N=C1/C(=O)N(CCCn2cc(CN3CCC[C@@H]4CN(c5c(F)cc6c(=O)c(C(=O)O)cn(C7CC7)c6c5OC)C[C@@H]43)nn2)c2ccc(F)cc21`: the Ratio is on record as 2 - 2048.

A further test has as its system Mycobacterium tuberculosis. The experiment in a line: Antimycobacterial activity against isoniazid/rifampicin/ethambutol-resistant Mycobacterium tuberculosis after 3 days by rapid direct susceptibility test. It counts as functional. The settings on record: 72 h.
As for `CO/N=C1/C(=O)N(CCCn2cc(CN3CCC[C@@H]4CN(c5c(F)cc6c(=O)c(C(=O)O)cn(C7CC7)c6c5OC)C[C@@H]43)nn2)c2ccccc21`, the MIC – broadly, the lowest concentration found to suppress growth – was determined as 0.25 µg/mL (≈ 0.358 µM).

Molecule `CCO/N=C1/C(=O)N(CCCn2cc(CN3CCC[C@@H]4CN(c5c(F)cc6c(=O)c(C(=O)O)cn(C7CC7)c6c5OC)C[C@@H]43)nn2)c2ccc(F)cc21` displayed an MIC of 0.12 µg/mL (≈ 0.164 µM).

`CO/N=C1/C(=O)N(CCCn2cc(CN3CCC[C@@H]4CN(c5c(F)cc6c(=O)c(C(=O)O)cn(C7CC7)c6c5OC)C[C@@H]43)nn2)c2ccc(C)cc21` gave an MIC of 0.5 µg/mL (≈ 0.701 µM). `CCO/N=C1/C(=O)N(CCCn2cc(CN3CCC[C@@H]4CN(c5c(F)cc6c(=O)c(C(=O)O)cn(C7CC7)c6c5OC)C[C@@H]43)nn2)c2ccc(C)cc21` had an MIC of 0.25 µg/mL (≈ 0.344 µM). As for `COc1c(N2C[C@H]3CCCN(Cc4cn(CCCN5C(=O)/C(=N/O)c6ccccc65)nn4)[C@H]3C2)c(F)cc2c(=O)c(C(=O)O)cn(C3CC3)c12`, the MIC was determined as 1 µg/mL (≈ 1.46 µM).

The molecule `CO[C@H]1/C=C/O[C@@]2(C)Oc3c(C)c(O)c4c(O)c(c(/C=N/N5CCN(C)CC5)c(O)c4c3C2=O)NC(=O)/C(C)=C\C=C\[C@H](C)[C@H](O)[C@@H](C)[C@@H](O)[C@@H](C)[C@H](OC(C)=O)[C@@H]1C` [RIFAMPIN] yielded an MIC of 32 µg/mL (≈ 38.9 µM). Molecule `COc1c(N2C[C@H]3CCCN(Cc4cn(CCCN5C(=O)C(=O)c6ccccc65)nn4)[C@H]3C2)c(F)cc2c(=O)c(C(=O)O)cn(C3CC3)c12` came in with an MIC of 1 µg/mL (≈ 1.49 µM). Take `COc1c(N2C[C@@H]3CCCN[C@@H]3C2)c(F)cc2c(=O)c(C(=O)O)cn(C3CC3)c12` [MOXIFLOXACIN]: the lowest concentration to inhibit growth (MIC) was 0.12 µg/mL (≈ 0.299 µM). `COc1c(N2C[C@H]3CCCN(Cc4cn(CCCN5C(=O)/C(=N/O)c6cc(F)ccc65)nn4)[C@H]3C2)c(F)cc2c(=O)c(C(=O)O)cn(C3CC3)c12` yielded an MIC of 0.25 µg/mL (≈ 0.356 µM).

Molecule `COc1c(N2C[C@H]3CCCN(Cc4cn(CCCN5C(=O)/C(=N/O)c6cc(C)ccc65)nn4)[C@H]3C2)c(F)cc2c(=O)c(C(=O)O)cn(C3CC3)c12` yielded a minimal inhibitory concentration (MIC) of 2 µg/mL (≈ 2.86 µM). For `NNC(=O)c1ccncc1` [ISONIAZID], the MIC is > 128 µg/mL. On to `COc1c(N2C[C@H]3CCCN(Cc4cn(CCCN5C(=O)C(=O)c6cc(C)ccc65)nn4)[C@H]3C2)c(F)cc2c(=O)c(C(=O)O)cn(C3CC3)c12`, for which the minimum inhibitory concentration (MIC) came to 1 µg/mL (≈ 1.46 µM).

As to `COc1c(N2C[C@H]3CCCN(Cc4cn(CCCN5C(=O)C(=O)c6cc(F)ccc65)nn4)[C@H]3C2)c(F)cc2c(=O)c(C(=O)O)cn(C3CC3)c12`, 0.25 µg/mL (≈ 0.364 µM) was the least that counted as inhibitory (MIC). The molecule `CCO/N=C1/C(=O)N(CCCn2cc(CN3CCC[C@@H]4CN(c5c(F)cc6c(=O)c(C(=O)O)cn(C7CC7)c6c5OC)C[C@@H]43)nn2)c2ccccc21` yielded an MIC of 0.25 µg/mL (≈ 0.351 µM). For `CO/N=C1/C(=O)N(CCCn2cc(CN3CCC[C@@H]4CN(c5c(F)cc6c(=O)c(C(=O)O)cn(C7CC7)c6c5OC)C[C@@H]43)nn2)c2ccc(F)cc21`, 0.06 µg/mL (≈ 0.0837 µM) was the least that counted as inhibitory (MIC).
